Measurements as given in article PMC9090415, “Discovery of small molecule inhibitors of Plasmodium falciparum apicoplast DNA polymerase” (Journal of Enzyme Inhibition and Medicinal Chemistry, 2022).

Molecular target: P. falciparum apicoplast DNA polymerase (Pf-apPOL) (Plasmodium falciparum, UniProt Q8ILY1)
Test: Fluorescence-based high-throughput DNA polymerase assay (molecular beacon), primary screen and dose-response
Assay type: biochemical
Settings: for DNA Pol: unit not given, 90 min, 10 µM; for % inhibition apPOL 180' 2.5 / % inhibition apPOL 180' 5 / % inhibition apPOL 180' 10 / % inhibition apPOL 180' 20 / % inhibition apPOL 180' 40 / % inhibition apPOL 180' 80: read at 180'
In short: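 Single-point screening used 10 µM compound with 20 nM polymerase, 20 nM hairpin substrate and 6 µM dNTPs for 90 min at 25 °C. Confirmatory titrations (2.5–80 µM) followed fluorescence at three times, and IC50 was derived from a fit including a cooperativity term n.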

Chain of P. falciparum apicoplast DNA polymerase (Pf-apPOL) (Q8ILY1 entry or part of it): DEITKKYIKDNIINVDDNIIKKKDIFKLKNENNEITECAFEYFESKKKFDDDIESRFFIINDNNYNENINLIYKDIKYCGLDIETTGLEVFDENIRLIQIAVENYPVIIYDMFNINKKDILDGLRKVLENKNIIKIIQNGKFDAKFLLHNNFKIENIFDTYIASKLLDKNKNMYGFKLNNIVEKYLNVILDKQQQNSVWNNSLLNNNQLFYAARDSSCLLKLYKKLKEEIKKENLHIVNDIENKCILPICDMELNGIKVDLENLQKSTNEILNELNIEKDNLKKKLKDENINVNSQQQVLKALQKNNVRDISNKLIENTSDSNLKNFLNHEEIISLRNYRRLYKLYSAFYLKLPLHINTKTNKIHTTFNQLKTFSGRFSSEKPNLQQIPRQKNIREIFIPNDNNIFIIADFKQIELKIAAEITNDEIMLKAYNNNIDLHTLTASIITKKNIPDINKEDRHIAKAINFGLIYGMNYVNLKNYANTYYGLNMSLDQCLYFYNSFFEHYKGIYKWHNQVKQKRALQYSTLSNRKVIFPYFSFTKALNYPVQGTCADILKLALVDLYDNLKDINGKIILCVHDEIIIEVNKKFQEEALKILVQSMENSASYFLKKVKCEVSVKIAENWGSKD

In the case of CC(=O)Nc1cc(C(=O)c2cccs2)nn(-c2ccc(Cl)cc2)c1=O [KU0267905], the “DNA Pol” value (186 hits, DNA Pol (screen value)) is reported as 68, the “DNA Pol” value ('DNA Pol' (screen value)) is reported as 68 and the “% inhibition Apo pol 10' 2.5” value (DRC-1, read at 10', concentration 2.5) is reported as -1.115%. The “% inhibition Apo pol 10' 5” value (DRC-1, read at 10', concentration 5) was 9.678%, the “% inhibition Apo pol 10' 10” value (DRC-1, read at 10', concentration 10) was 23.8402% and the “% inhibition Apo pol 10' 20” value (DRC-1, read at 10', concentration 20) was 30.1491%. For the same compound, the “% inhibition Apo pol 10' 40” value (DRC-1, read at 10', concentration 40) was 60.7427%, the “% inhibition Apo pol 10' 80” value (DRC-1, read at 10', concentration 80) was 68.442% and the “% inhibition Apol 90' 2.5” value (DRC-1, read at 90', concentration 2.5) was -1.383%. The “% inhibition Apol 90' 5” value (DRC-1, read at 90', concentration 5) was -2.969%, the “% inhibition Apol 90' 10” value (DRC-1, read at 90', concentration 10) was 7.904% and the “% inhibition Apol 90' 20” value (DRC-1, read at 90', concentration 20) was 14.4381%. The “% inhibition Apol 90' 40” value (DRC-1, read at 90', concentration 40) was 45.4354%, the “% inhibition Apol 90' 80” value (DRC-1, read at 90', concentration 80) was 70.7976% and the “% inhibition apPOL 180' 2.5” value (DRC-1, concentration 2.5) was -1.959%. The “% inhibition apPOL 180' 5” value (DRC-1, concentration 5) was -7.949%, the “% inhibition apPOL 180' 10” value (DRC-1, concentration 10) was -1.249% and the “% inhibition apPOL 180' 20” value (DRC-1, concentration 20) was 2.642%. For the same compound, the “% inhibition apPOL 180' 40” value (DRC-1, concentration 40) was 28.3479%, the “% inhibition apPOL 180' 80” value (DRC-1, concentration 80) was 62.799% and the “% inhibition Apo pol 5'” value (DRC-2, 5', concentration 2.5) was 7%. The “% inhibition Apol 40'” value (DRC-2, concentration 5) was 7%, the “% inhibition Apol 40'” value (DRC-2, concentration 80) was 52% and the “% inhibition ApPOL 90'” value (DRC-2, 90', concentration 5) was 4%. For the same compound, the “% inhibition apPOL 180'” value (DRC-2, concentration 10) was 4%, the “% inhibition apPOL 180'” value (DRC-2, concentration 80) was 52% and the “% inhibition Apo pol 5' 2.5” value (DRC-2, read at 5', concentration 2.5) was 7%. The “% inhibition Apo pol 5' 5” value (DRC-2, read at 5', concentration 5) was 11%, the “% inhibition Apo pol 5' 10” value (DRC-2, read at 5', concentration 10) was 21% and the “% inhibition Apo pol 5' 20” value (DRC-2, read at 5', concentration 20) was 29%. For the same compound, the “% inhibition Apo pol 5' 40” value (DRC-2, read at 5', concentration 40) was 40%, the “% inhibition Apo pol 5' 80” value (DRC-2, read at 5', concentration 80) was 36% and the “% inhibition Apol 40' 2.5” value (DRC-2, read at 40', concentration 2.5) was 4.64%. For the same compound, the “% inhibition Apol 40' 5” value (DRC-2, read at 40', concentration 5) was 7%, the “% inhibition Apol 40' 10” value (DRC-2, read at 40', concentration 10) was 15% and the “% inhibition Apol 40' 20” value (DRC-2, read at 40', concentration 20) was 25%. The “% inhibition Apol 40' 40” value (DRC-2, read at 40', concentration 40) was 44%, the “% inhibition Apol 40' 80” value (DRC-2, read at 40', concentration 80) was 52% and the “% inhibition ApPOL 90' 2.5” value (DRC-2, read at 90', concentration 2.5) was 3.39%. The “% inhibition ApPOL 90' 5” value (DRC-2, read at 90', concentration 5) was 4%, the “% inhibition ApPOL 90' 10” value (DRC-2, read at 90', concentration 10) was 12% and the “% inhibition ApPOL 90' 20” value (DRC-2, read at 90', concentration 20) was 19%. For the same compound, the “% inhibition ApPOL 90' 40” value (DRC-2, read at 90', concentration 40) was 42%, the “% inhibition ApPOL 90' 80” value (DRC-2, read at 90', concentration 80) was 55% and the “% inhibition apPOL 180' 2.5” value (DRC-2, concentration 2.5) was -1.41%. For the same compound, the “% inhibition apPOL 180' 5” value (DRC-2, concentration 5) was 0.65%, the “% inhibition apPOL 180' 10” value (DRC-2, concentration 10) was 4% and the “% inhibition apPOL 180' 20” value (DRC-2, concentration 20) was 9%. The “% inhibition apPOL 180' 40” value (DRC-2, concentration 40) was 31% and the “% inhibition apPOL 180' 80” value (DRC-2, concentration 80) was 52%.
